Laboratory results from ChEMBL document CHEMBL1131758, “5-fluoro-2-methyl-N-[5-(5H-pyrrolo[2,1-c][1,4]benzodiazepine-10(11H)-yl carbonyl)-2-pyridinyl]benzamide (CL-385004) and analogs as orally active arginine vasopressin receptor antagonists” (Bioorg Med Chem Lett, 1999).
pIC50: −log10 of the molar value.

Columns and labels:
Rattus norvegicus [1] = assay: Amount of urine output was measured in rat at a dose of 10 mg/kg/po; type: ADME, organism-based; conditions: in vivo
Vasopressin V1a receptor [2] = target: T1, Vasopressin V1a receptor (Rattus norvegicus, UniProt P30560); assay: Displacement of (Phe-3,4,5 [3H]-) AVP from isolated rat hepatic V1a receptor
Vasopressin V2 receptor [3] = target: T2, Vasopressin V2 receptor (Rattus norvegicus, UniProt Q00788); assay: Displacement of P[3H]-AVP from isolated rat kidney medullary V2 receptor
[4] = target: Vasopressin V1a receptor (Rattus norvegicus) (UniProt P30560); assay: In vitro inhibition of (Phe-3,4,5 [3H]-) AVP binding towards isolated rat hepatic V1a receptor at a dose of 10 uM
[5] = target: Vasopressin V2 receptor (Rattus norvegicus) (UniProt Q00788); assay: In vitro inhibition of (P[3H]-AVP binding towards isolated rat kidney medullary V2 receptor at a dose of 10 uM
Vasopressin V1a receptor [6] = target: T1, Vasopressin V1a receptor; assay: In vitro inhibition of (Phe-3,4,5 [3H]-) AVP binding towards isolated rat hepatic Vasopressin V1a receptor
Vasopressin V2 receptor [7] = target: T2, Vasopressin V2 receptor; assay: In vitro inhibition of (P[3H]-AVP binding towards isolated rat kidney medullary Vasopre ssin V2 receptor
Rattus norvegicus [8] = assay: Amount of urine output was measured in rat at a dose of 1 mg/kg/po; type: ADME, organism-based; conditions: in vivo

Sequence of Vasopressin V1a receptor (Rattus norvegicus) (P30560 whole entry, looked up): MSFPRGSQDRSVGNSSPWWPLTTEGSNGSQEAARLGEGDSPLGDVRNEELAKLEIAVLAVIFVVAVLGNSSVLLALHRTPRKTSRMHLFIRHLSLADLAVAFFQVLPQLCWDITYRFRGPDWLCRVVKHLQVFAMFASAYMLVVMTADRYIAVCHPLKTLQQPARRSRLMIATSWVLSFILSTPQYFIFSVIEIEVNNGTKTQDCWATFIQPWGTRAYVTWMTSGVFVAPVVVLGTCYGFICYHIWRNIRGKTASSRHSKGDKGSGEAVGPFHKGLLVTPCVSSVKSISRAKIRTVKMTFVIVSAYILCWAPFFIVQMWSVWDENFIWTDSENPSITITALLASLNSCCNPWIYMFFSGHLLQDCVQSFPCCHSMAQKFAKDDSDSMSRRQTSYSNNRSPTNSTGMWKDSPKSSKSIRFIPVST
T1 sequence (P30560 whole entry): as the sequence (P30560 whole entry, looked up) above
T2 sequence (Q00788 whole entry): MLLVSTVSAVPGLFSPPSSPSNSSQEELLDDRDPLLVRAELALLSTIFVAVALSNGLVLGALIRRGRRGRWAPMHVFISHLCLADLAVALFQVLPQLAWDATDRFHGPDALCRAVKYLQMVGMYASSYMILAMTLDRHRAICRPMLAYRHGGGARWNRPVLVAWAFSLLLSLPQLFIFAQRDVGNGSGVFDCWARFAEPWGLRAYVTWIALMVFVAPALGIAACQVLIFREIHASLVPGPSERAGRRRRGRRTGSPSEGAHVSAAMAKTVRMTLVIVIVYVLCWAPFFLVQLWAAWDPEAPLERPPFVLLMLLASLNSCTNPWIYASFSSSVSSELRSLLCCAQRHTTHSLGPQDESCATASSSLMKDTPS
Sequence of Vasopressin V2 receptor (Rattus norvegicus) (Q00788 whole entry): as above

SMILES	Urine volume (Rattus norvegicus [1])	pIC50 (Vasopressin V1a receptor [2])	pIC50 (Vasopressin V2 receptor [3])	further results
O=C(Nc1ccc(C(=O)N2Cc3cccn3Cc3ccccc32)cn1)c1ccc(F)cc1F				inhibition [4]: 37%; inhibition [5]: 58%
Cc1ccc(F)cc1C(=O)Nc1ccc(C(=O)N2Cc3ccc(CN(C)C)n3Cc3ccccc32)cn1	12.5 ml 4hr-1	7.00	7.48	
O=C(Nc1ccc(C(=O)N2Cc3cccn3Cc3ccccc32)cn1)c1ccccc1[N+](=O)[O-]		6.04	6.80	
O=C(Nc1ccc(C(=O)N2Cc3cccn3Cc3ccccc32)cn1)c1ccccc1Cl	4 ml 4hr-1			
O=C(Nc1ccc(C(=O)N2Cc3cccn3Cc3ccccc32)cn1)c1cc(-c2ccccn2)ccc1Cl		6.59	6.32	
Cc1ccccc1C(=O)Nc1ccc(C(=O)N2Cc3cccn3Cc3ccccc32)cn1	5.3 ml 4hr-1			pIC50 (Vasopressin V1a receptor [6]): 7.68; pIC50 (Vasopressin V2 receptor [7]): 8.52
Cc1ccc(F)cc1C(=O)N(CCCN(C)C)c1ccc(C(=O)N2Cc3cccn3Cc3ccccc32)cn1			6.54	inhibition [4]: 68%
O=C(Nc1ccc(C(=O)N2Cc3cccn3Cc3ccccc32)cn1)c1ccccc1-c1ccccc1	16.5 ml 4hr-1	7.52	8.08	
Cc1ccc(F)cc1C(=O)Nc1ccc(C(=O)N2Cc3cccn3Cc3ccccc32)c(Cl)c1 [LIXIVAPTAN]	35 ml 4hr-1	7.09	9.30	
Cc1ccc(F)cc1C(=O)Nc1ccc(C(=O)N2Cc3cccn3Cc3ccccc32)cn1				Urine volume (Rattus norvegicus [8]): 20 ml 4hr-1
O=C(Nc1ccc(C(=O)N2Cc3cccn3Cc3ccccc32)cn1)c1c(F)cccc1Cl	15.8 ml 4hr-1	7.40	8.40	
Nc1ccccc1C(=O)Nc1ccc(C(=O)N2Cc3cccn3Cc3ccccc32)cn1			6.68	inhibition [4]: 29%
COc1cc(C(=O)Nc2ccc(C(=O)N3Cc4cccn4Cc4ccccc43)cn2)cc(OC)c1OC				inhibition [4]: 51%; inhibition [5]: 41%

Further lines, with some results ahead:

Urine volume (Rattus norvegicus [1])	pIC50 (Vasopressin V1a receptor [2])	pIC50 (Vasopressin V2 receptor [3])	SMILES	further results
16.5 ml 4hr-1	7.09	8.14	O=C(Nc1ccc(C(=O)N2Cc3cccn3Cc3ccccc32)cn1)c1cc(Br)ccc1Cl	
30.5 ml 4hr-1			O=C(Nc1ccc(C(=O)N2Cc3cccn3Cc3ccccc32)cn1)c1ccc(F)cc1Cl	
11.8 ml 4hr-1	6.51	6.62	O=C(Nc1ccc(C(=O)N2Cc3cccn3Cc3ccccc32)cn1)c1cc(F)ccc1F	
19.3 ml 4hr-1	7.00	8.37	O=C(Nc1ccc(C(=O)N2Cc3cccn3Cc3ccccc32)cn1)c1cc(Cl)ccc1Cl	
34 ml 4hr-1	8.05		Cc1c(F)cccc1C(=O)Nc1ccc(C(=O)N2Cc3cccn3Cc3ccccc32)cn1	
